In patent publication US20250205200A1, “5-METHOXY-N,N-[…][…] THE TREATMENT OF […]” (GH RESEARCH IRELAND LIMITED, priority 2022, published 2025):

System: patients with postpartum depression (PPD)
Test: Clinical trial of inhaled 5-MeO-DMT (individualized dosing regimen) in postpartum depression; one patient, 6 mg then 12 mg
Details: n=1; for BPRS Blunted affect improvement / BPRS Blunted affect score / BPRS Conceptual disorganization improvement / BPRS Conceptual disorganization score / BPRS Disorientation improvement / BPRS Disorientation score / BPRS Grandiosity improvement / BPRS Grandiosity score / BPRS Hallucinatory behaviour improvement / BPRS Hallucinatory behaviour score / BPRS Hostility improvement / BPRS Hostility score / BPRS Mannerisms and Posturing improvement / BPRS Mannerisms and Posturing score / BPRS Motor retardation improvement / BPRS Motor retardation score / BPRS Suspiciousness improvement / BPRS Suspiciousness score / BPRS Uncooperativeness improvement / BPRS Uncooperativeness score / BPRS Unusual Thought Content improvement / BPRS Unusual Thought Content score: baseline 1; for BPRS Excitement improvement / BPRS Excitement score: baseline 2; for BPRS Anxiety improvement / BPRS Anxiety score: baseline 7
Procedure: The single-arm, open-label clinical trial will involve 15 adult female patients with clinically diagnosed postpartum depression (PPD).
The second dose (12 mg) will only be administered if: • a. […] The 6 mg dose was safe and well-tolerated according to the investigator, • c. Any psychoactive effects (PsE) of the prior dose have subsided, and • d. Pre-dose vital parameters and forced expiratory volume in one second (FEV1) are in normal range, or if outside of the normal range, are not clinically significant according to the investigator. • 3. Similarly, a third dose (18 mg) will only be administered if: • a. […] The 12 mg dose was safe and well-tolerated according to the investigator, and • c. Any PsE of the prior dose have subsided, and • d. Pre-dose vital parameters and forced expiratory volume in one second (FEV1) are in normal range, or if outside of the normal range, are not clinically significant according to the investigator.
The patients will be assessed for a peak psychedelic experience (based on a patient-scored visual analogue scale, the PE scale), sedation, and other endpoints after dosing.
Follow-up visits are planned for Day 1, and Day 7 after the dosing day.
The following criteria must be met by all patients considered for clinical trial participation: • 1. Is female and in the age range between 18 and 45 years (inclusive) at screening. • 2. Has a body mass index (BMI) in the range of 18.5 and 35 kg/m^2 (inclusive) at screening. • 3. Meets the trial criteria for PPD as assessed by a trial psychiatrist or registered psychologist: • a. Diagnosis of Major Depressive Disorder without psychotic features, confirmed by the Mini-International Neuropsychiatric Interview (MINI), with peri-partum onset that began no earlier than gestation and no later than the first 4 weeks postpartum. • b. Has a Montgomery-Åsberg Depression Rating Scale (MADRS) total score of equal to or greater than 28 at screening and pre-dose on Day 0. • 6. […] Patients must have a negative pregnancy test at screening and on the pre-test day (Day −1). • 5. Is willing to delay start of other antidepressant or anxiety medication until after the end of the trial at Day 7 and agrees to keep any psychotherapy unchanged during the trial.
A potential patient who meets any of the following key exclusion criteria will be excluded from participation in this trial: • 1. Has, based on history, psychiatric assessment, and evaluation of the MINI, a current or prior diagnosis of bipolar disorder, a manic or hypomanic episode, a psychotic disorder, Major Depressive Disorder (MDD) or other mood disorder with psychotic features, obsessive compulsive disorder, post-traumatic stress disorder (PTSD), autism spectrum disorder, borderline personality disorder, schizophrenia, delusional disorder, paranoid personality disorder, schizoaffective disorder, clinically significant intellectual disability, or any other psychiatric comorbidity that renders the patient unsuitable for the trial according to the investigator's judgment. • 2. Has one or more first or second degree relatives with a current or previously diagnosed bipolar disorder, psychotic disorder or other mood disorder (including MDD) with psychotic features. • 3. Is in the judgement of a trial psychiatrist or registered psychologist, at significant risk for suicide based on history, psychiatric assessment, and evaluation of suicidal ideation and suicidal behaviour based on the Columbia-Suicide Severity Rating Scale (C-SSRS). • 4. Has taken anti-depressive medication within 14 days or 5 half-lives (whichever is longer) prior to dosing (exception: within the last 5 weeks in the case of fluoxetine). • 5.

COc1ccc2[nH]cc(CCN(C)C)c2c1 [5-MeO-DMT]
MADRS Suicidal Thoughts improvement (Day 7, baseline 0): 0
MADRS Suicidal Thoughts score (Day 7, baseline 0): 0
BPRS Blunted affect improvement (Day 7): 0
BPRS Blunted affect score (Day 7): 1
BPRS Conceptual disorganization improvement (Day 7): 0
BPRS Conceptual disorganization score (Day 7): 1
BPRS Disorientation improvement (Day 7): 0
BPRS Disorientation score (Day 7): 1
BPRS Grandiosity improvement (Day 7): 0
BPRS Grandiosity score (Day 7): 1
BPRS Hallucinatory behaviour improvement (Day 7): 0
BPRS Hallucinatory behaviour score (Day 7): 1
BPRS Hostility improvement (Day 7): 0
BPRS Hostility score (Day 7): 1
BPRS Mannerisms and Posturing improvement (Day 7): 0
BPRS Mannerisms and Posturing score (Day 7): 1
BPRS Motor retardation improvement (Day 7): 0
BPRS Motor retardation score (Day 7): 1
BPRS Suspiciousness improvement (Day 7): 0
BPRS Suspiciousness score (Day 7): 1
BPRS Uncooperativeness improvement (Day 7): 0
BPRS Uncooperativeness score (Day 7): 1
BPRS Unusual Thought Content improvement (Day 7): 0
BPRS Unusual Thought Content score (Day 7): 1
BPRS Excitement improvement (Day 7): 1
BPRS Excitement score (Day 7): 1
MADRS Inability to Feel improvement (Day 7, baseline 3): 3
MADRS Inability to Feel score (Day 7, baseline 3): 0
MADRS Lassitude improvement (Day 7, baseline 3): 3
MADRS Lassitude score (Day 7, baseline 3): 0
MADRS Pessimistic Thoughts improvement (Day 7, baseline 4): 4
MADRS Pessimistic Thoughts score (Day 7, baseline 4): 0
MADRS Reported sadness improvement (Day 7, baseline 4): 4
MADRS Reported sadness score (Day 7, baseline 4): 0
BPRS Emotional withdrawal improvement (Day 7, baseline 5): 4
BPRS Emotional withdrawal score (Day 7, baseline 5): 1
MADRS Apparent sadness improvement (Day 7, baseline 5): 5
MADRS Apparent sadness score (Day 7, baseline 5): 0
MADRS Inner Tension improvement (Day 7, baseline 5): 4
MADRS Inner Tension score (Day 7, baseline 5): 1
MADRS Reduced Sleep improvement (Day 7, baseline 5): 5
MADRS Reduced Sleep score (Day 7, baseline 5): 0
BPRS Depressive Mood improvement (Day 7, baseline 6): 5
BPRS Depressive Mood score (Day 7, baseline 6): 1
BPRS Guilt feelings improvement (Day 7, baseline 6): 5
BPRS Guilt feelings score (Day 7, baseline 6): 1
BPRS Somatic Concern improvement (Day 7, baseline 6): 5
BPRS Somatic Concern score (Day 7, baseline 6): 1
BPRS Tension improvement (Day 7, baseline 6): 5
BPRS Tension score (Day 7, baseline 6): 1
BPRS Anxiety improvement (Day 7): 6
BPRS Anxiety score (Day 7): 1
BIMF functional domain Adjustment % improvement (Day 7 vs Day 0): 20.00%
BIMF functional domain Adjustment Δ (Day 7 vs Day 0): 1
BIMF functional domain Infant Care % improvement (Day 7 vs Day 0): 0.00%
BIMF functional domain Infant Care Δ (Day 7 vs Day 0): 0
BIMF functional domain Management % improvement (Day 7 vs Day 0): 18%
BIMF functional domain Management Δ (Day 7 vs Day 0): 5
BIMF functional domain Mother-Child Interaction Δ (Day 7 vs Day 0): 2
BIMF functional domain Psychological Well-being Δ (Day 7 vs Day 0): 9
BIMF functional domain Self-Care % improvement (Day 7 vs Day 0): 44%
BIMF functional domain Self-Care Δ (Day 7 vs Day 0): 4
BIMF functional domain Social Support Δ (Day 7 vs Day 0): 1
BIMF item 10 (I trust my own feelings (instincts) when taking care of my baby) Δ (Day 7 vs Day 0): 1
BIMF item 11 (I take a little time each week to do something for myself) Δ (Day 7 vs Day 0): 1
BIMF item 16 (I worry about how other people judge me (as a mother)) Δ (Day 7 vs Day 0): 2
BIMF total score percentage improvement (Day 7 vs Day 0 (92 to 105)): 14%
BPRS Blunted affect improvement (Discharge): 0
BPRS Blunted affect score (Discharge): 1
BPRS Conceptual disorganization improvement (Discharge): 0
BPRS Conceptual disorganization score (Discharge): 1
BPRS Disorientation improvement (Discharge): 0
BPRS Disorientation score (Discharge): 1
BPRS Grandiosity improvement (Discharge): 0
BPRS Grandiosity score (Discharge): 1
BPRS Hallucinatory behaviour improvement (Discharge): 0
BPRS Hallucinatory behaviour score (Discharge): 1
BPRS Hostility improvement (Discharge): 0
BPRS Hostility score (Discharge): 1
BPRS Mannerisms and Posturing improvement (Discharge): 0
BPRS Mannerisms and Posturing score (Discharge): 1
BPRS Motor retardation improvement (Discharge): 0
BPRS Motor retardation score (Discharge): 1
BPRS Suspiciousness improvement (Discharge): 0
BPRS Suspiciousness score (Discharge): 1
BPRS Uncooperativeness improvement (Discharge): 0
BPRS Uncooperativeness score (Discharge): 1
BPRS Unusual Thought Content improvement (Discharge): 0
BPRS Unusual Thought Content score (Discharge): 1
BPRS Excitement improvement (Discharge): 1
BPRS Excitement score (Discharge): 1
BPRS Emotional withdrawal improvement (Discharge, baseline 5): 4
BPRS Emotional withdrawal score (Discharge, baseline 5): 1
BPRS Depressive Mood improvement (Discharge, baseline 6): 5
BPRS Depressive Mood score (Discharge, baseline 6): 1
BPRS Guilt feelings improvement (Discharge, baseline 6): 5
BPRS Guilt feelings score (Discharge, baseline 6): 1
BPRS Somatic Concern improvement (Discharge, baseline 6): 5
BPRS Somatic Concern score (Discharge, baseline 6): 1
BPRS Tension score (Discharge, baseline 6): 1
BPRS Anxiety improvement (Discharge): 6
BPRS Anxiety score (Discharge): 1
Changes in vital parameters (shortly after administration): temporary, clinically non-relevant increase in heart rate and blood pressure
